This is an account of results in publication PMC6522510 (Nature Communications, 2019).

The test system of assay [1] is MV4-11. Briefly: cells. Also noted: species or system AML cell lines (8); Secondary HTS, 10-point dose-response in triplicate, Cell Titer Glo viability, four-parameter fit EC50. The conditions noted are these: Homo sapiens, MV4-11, 72 h, read-out: MV4-11.
Assay [2] relates to CHRF288-11. Briefly: cells. Also noted: species or system AML cell lines (8); Secondary HTS, 10-point dose-response in triplicate, Cell Titer Glo viability, four-parameter fit EC50. As to conditions: 72 h, read-out: CHRF288-11.
Assay [3] concerns CMS. Briefly: Secondary dose-response HTS, Cell Titer Glo. The class given is cell-based, human. The conditions noted are these: Homo sapiens, HTS, read-out: average effective concentration, CMS. On the technique in general: ATP-based viability assays read luminescence as a measure of living cells.
The subject of assay [4] is ML-2. Briefly: cells. Also noted: species or system AML cell lines (8); Secondary HTS, 10-point dose-response in triplicate, Cell Titer Glo viability, four-parameter fit EC50. As to conditions: Homo sapiens, ML-2, 72 h, read-out: ML-2.
The subject of assay [5] is M07e. Briefly: Secondary dose-response HTS, Cell Titer Glo. The class given is cell-based, human. The conditions noted are these: Homo sapiens, M-07e; secondary high-throughput screen; M07e; read-out: average effective concentration, M07e.
Assay [6] concerns CMK. Briefly: cells. Set-up: species or system AML cell lines (8); Secondary HTS, 10-point dose-response in triplicate, Cell Titer Glo viability, four-parameter fit EC50. The conditions noted are these: Homo sapiens, CMK, 72 h, read-out: CMK.
Assay [7] deals with MOLM-13. Briefly: cells. Set-up: species or system AML cell lines (8); Secondary HTS, 10-point dose-response in triplicate, Cell Titer Glo viability, four-parameter fit EC50. As to conditions: Homo sapiens, MOLM-13, 72 h, read-out: MOLM-13.
Assay [8] has as its system U937. Briefly: cells. Set-up: species or system AML cell lines (8); Secondary HTS, 10-point dose-response in triplicate, Cell Titer Glo viability, four-parameter fit EC50. As to conditions: Homo sapiens, U-937, 72 h, read-out: U937.
The subject of assay [9] is CHRF288-11. Briefly: Secondary dose-response HTS, Cell Titer Glo. The class given is cell-based, human. As to conditions: Homo sapiens, HTS; secondary high-throughput screen; CHRF288-11; read-out: average effective concentration, CHRF288-11.
In assay [10] the test system is U937. Briefly: Secondary dose-response HTS, Cell Titer Glo. Type of assay: cell-based, human. The conditions noted are these: Homo sapiens, U-937; secondary high-throughput screen; U937; read-out: average effective concentration, U937.
Assay [11] has as its system CMK. Briefly: Secondary dose-response HTS, Cell Titer Glo. The class given is cell-based, human. The conditions noted are these: Homo sapiens, CMK, read-out: average effective concentration, CMK.
In assay [12] the test system is CMS. Briefly: cells. Also noted: species or system AML cell lines (8); Secondary HTS, 10-point dose-response in triplicate, Cell Titer Glo viability, four-parameter fit EC50. The conditions noted are these: 72 h, read-out: CMS.
Assay [13] relates to MOLM-13. Briefly: Secondary dose-response HTS, Cell Titer Glo. Type of assay: cell-based, human. As to conditions: Homo sapiens; secondary high-throughput screen; MOLM-13; read-out: average effective concentration, MOLM-13.
Assay [14] relates to M07e. Briefly: cells. Also noted: species or system AML cell lines (8); Secondary HTS, 10-point dose-response in triplicate, Cell Titer Glo viability, four-parameter fit EC50. The conditions noted are these: M-07e, 72 h, read-out: M07e.
Assay [15] has as its system MV4-11. Briefly: Secondary dose-response HTS, Cell Titer Glo. Type of assay: cell-based, human. As to conditions: Homo sapiens; secondary high-throughput screen; MV4-11; read-out: average effective concentration, MV4-11.
For assay [16], the system named is M07e. Also noted: species or system AML cell lines (8); Primary HTS, single concentration about 10 uM, Cell Titer Glo viability; log10 luminescence, per cent inhibition relative to cycloheximide control. The conditions noted are these: 72 h, relative to cycloheximide control, log10 luminescence, inhibitor, M07e %inh, 10 µM.
For assay [17], the system named is MV4-11. Set-up: species or system AML cell lines (8); Primary HTS, single concentration about 10 uM, Cell Titer Glo viability; log10 luminescence, per cent inhibition relative to cycloheximide control. As to conditions: 72 h, relative to cycloheximide control, log10 luminescence, inhibitor, MV4-11 %inh, 10 µM.
For assay [18], the system named is MOLM-13. Also noted: species or system AML cell lines (8); Primary HTS, single concentration about 10 uM, Cell Titer Glo viability; log10 luminescence, per cent inhibition relative to cycloheximide control. The conditions noted are these: 72 h, relative to cycloheximide control, log10 luminescence, inhibitor, MOLM-13 %inh, 10 µM.
In assay [19] the test system is CMK. Set-up: species or system AML cell lines (8); Primary HTS, single concentration about 10 uM, Cell Titer Glo viability; log10 luminescence, per cent inhibition relative to cycloheximide control. The conditions noted are these: 72 h, relative to cycloheximide control, log10 luminescence, inhibitor, CMK %inh, 10 µM.
Assay [20] deals with U937. Set-up: species or system AML cell lines (8); Primary HTS, single concentration about 10 uM, Cell Titer Glo viability; log10 luminescence, per cent inhibition relative to cycloheximide control. The conditions noted are these: 72 h, relative to cycloheximide control, log10 luminescence, inhibitor, U937 %inh, 10 µM.
For assay [21], the system named is CMS. Also noted: species or system AML cell lines (8); Primary HTS, single concentration about 10 uM, Cell Titer Glo viability; log10 luminescence, per cent inhibition relative to cycloheximide control. As to conditions: 72 h, relative to cycloheximide control, log10 luminescence, inhibitor, CMS %inh, 10 µM.
Assay [22] deals with ML-2. Also noted: species or system AML cell lines (8); Primary HTS, single concentration about 10 uM, Cell Titer Glo viability; log10 luminescence, per cent inhibition relative to cycloheximide control. As to conditions: 72 h, relative to cycloheximide control, log10 luminescence, inhibitor, ML-2 %inh, 10 µM.
Where [23] appears, read: secondary high-throughput screen, CMS.

The structures appear in SMILES notation. Where “and” joins values, the source holds several entries; their conditions need not be identical. Identical values can stand only once.

On to `O=c1cc(N2CCOCC2)oc2c(-c3ccccc3)cccc12` [LY-294002], for which the EC50 is > 10 µM in assay [1]; > 10 µM in assay [2]; > 10 µM in assay [3] (setting [23]); > 10 µM in assay [4]; > 10000 nM in [5]; > 10 µM in assay [6]. Also, the EC50 in [7] and in assay [8] was > 10 µM each time.
On to `CC(C)C[C@H](NC(=O)CNC(=O)c1cc(Cl)ccc1Cl)B(O)O` [IXAZOMIB], for which the EC50 in assay [1] was > 10 µM; in assay [9], 10 nM; in assay [3] (setting [23]), 0.0056 µM; in [10], 10 nM; in [4], 0.0052 µM; in assay [5], 11 nM. For the same compound, the EC50 in [7] came to 0.0067 µM; in [11] (secondary high-throughput screen), 7 nM.
In the case of `CS(=O)(=O)c1ccc(-c2cnc(N)c(C(=O)Nc3ccccc3)n2)cc1` [VE-821], the EC50 in assay [1] was > 10 µM; in [2], > 10 µM; in [12] it was > 10 µM; in assay [4] it was > 10 µM; in [5] it was 6700 nM; in assay [6], > 10 µM. Also, the EC50 in assay [7] and in assay [8] was > 10 µM each time.
With `Cc1cn(-c2cc(NC(=O)c3ccc(C)c(Nc4nccc(-c5cccnc5)n4)c3)cc(C(F)(F)F)c2)cn1` [NILOTINIB], the EC50 in [1] is > 10 µM; in assay [2], > 10 µM; in assay [12] it was > 10 µM; in [4], > 10 µM; in assay [5], > 10000 nM; in assay [6], > 10 µM. The EC50 in [7] and in assay [8] was > 10 µM throughout.
For the compound `CO[C@H]1C[C@@H]2CC[C@@H](C)[C@@](O)(O2)C(=O)C(=O)N2CCCC[C@H]2C(=O)O[C@H]([C@H](C)C[C@@H]2CC[C@@H](O)[C@H](OC)C2)CC(=O)[C@H](C)/C=C(\C)[C@@H](O)[C@@H](OC)C(=O)[C@H](C)C[C@H](C)/C=C/C=C/C=C/1C` [SIROLIMUS], the EC50 is > 10 µM in assay [13]; > 10 µM in [2]; > 10 µM in [14]; > 10 µM in assay [3] (setting [23]); 1 nM in [10]; 1 nM in [15]. In addition, the EC50 in [4] and in assay [6] was > 10 µM in each case.
With `O=C1CCC[C@@H]2[C@H]3CCC[N+]4([O-])CCC[C@@H](CN12)[C@@H]34` (stereo partly shown) [OXYMATRINE], the EC50 in [1] was > 10 µM; in assay [2], > 10 µM; in [12] it was > 10 µM; in assay [4], > 10 µM; in assay [5] it was 58 nM; in assay [6], > 10 µM. The EC50 in assay [7] and in assay [8] was > 10 µM in each case.
With `CCCc1nc(C(C)(C)O)c(C(=O)OCc2oc(=O)oc2C)n1Cc1ccc(-c2ccccc2-c2nnn[nH]2)cc1` [OLMESARTAN MEDOXOMIL], in [16], the M07e %inh is -0.6363% and -1.428%. Moreover, the MV4-11 %inh in assay [17] is 1.21% and -0.1295%. The MOLM-13 %inh in [18] was 3.566% and -1.782%. Moreover, the EC50 in assay [1] was > 10 µM; in [2], > 10 µM; in [12], > 10 µM; in assay [4], > 10 µM; in [5], 5800 nM; in [6], > 10 µM. The EC50 in [7] and in [8] was > 10 µM each time. For the same compound, the CMK %inh in [19] was 0.5387% and -8.221%. Besides, the U937 %inh in [20] was -0.6807% and -1.42%. In addition, the CMS %inh in [21] is -4.154% and -3.286%. The ML-2 %inh in assay [22] is 0.6032% and 1.808%.
As to `CC(C)Oc1ccc(C(=O)N[C@H](CNC(=O)CN(C)C)Cc2ccc(-c3cn4cccc([C@H](C)O)c4n3)cc2)cc1Cl` [GSK-923295], the EC50 in assay [1] was > 10 µM; in assay [2], > 10 µM; in assay [3], 0.011 µM; in assay [10] it was 1 nM; in assay [4], 0.0077 µM; in assay [5], 140 nM. In addition, the EC50 in [6] and in [7] was > 10 µM throughout.
Regarding `CCn1c(C(=O)N(C2CC2)C2CC2)cc2c3c(ncn3C)c(Nc3cc(C)n(C)n3)nc21` [BMS-911543], the EC50 was > 10 µM in assay [1]; > 10 µM in assay [2]; 5 µM in assay [3] (setting [23]); > 10 µM in assay [4]; 8700 nM in assay [5]; > 10 µM in assay [6]. Moreover, the EC50 in assay [7] and in [8] was > 10 µM each time.
Take `Cc1ccc(C(=O)Nc2ccc(Oc3cc4cnn(C)c4cc3-c3cn[nH]c3)c(F)c2)c(=O)n1-c1ccc(F)cc1` [Merestinib]: the EC50 in assay [1] was > 10 µM; in assay [2] it was > 10 µM; in assay [12], > 10 µM; in assay [4], > 10 µM; in assay [5], 25 nM; in assay [6], > 10 µM. In addition, the figures for the EC50 in assay [7] and in [8] were 0.0058 µM and > 10 µM, respectively.
As for `Cc1cc(Nc2cc(N3CCN(C)CC3)nc(/C=C/c3ccccc3)n2)n[nH]1` [ENMD-2076], the EC50 was 0.125 µM in [1]; > 10 µM in assay [2]; > 10 µM in assay [14]; 3.2 µM in assay [3]; > 10 µM in [4]; 0.0955 µM in assay [7]. The EC50 in assay [11] was 110 nM; in [8], > 10 µM.
As to `COc1cccc2c1c(O)c(C(=O)N(C)c1ccc(C(F)(F)F)cc1)c(=O)n2C` [TASQUINIMOD], the EC50 in assay [1] is > 10 µM; in assay [2] it was > 10 µM; in [12], > 10 µM; in assay [4], > 10 µM; in assay [5], 1200 nM; in assay [6], > 10 µM. Besides, the EC50 in assay [7] and in assay [8] was > 10 µM each time.
